# Results reported in patent publication US20200317642A1, “AMINE-SUBSTITUTED HETEROCYCLIC COMPOUNDS AS EHMT2 INHIBITORS AND DERIVATIVES THEREOF” (Epizyme, Inc., priority 2017, published 2020).
# Where two headings read alike, the source gives them in different places.
# Tests used:
# human EHMT2 913-1193 = molecular target: T1, human EHMT2 913-1193 (Homo sapiens, UniProt Q96KQ7); experiment: EHMT2 enzyme assay on histone peptide substrate; format: biochemical; conditions: histone H3 1-15 peptide, balanced conditions
# T1 construct: recombinant purified human EHMT2 913-1193, Viva; purchased Viva
# T1 sequence (Q96KQ7 913-1193): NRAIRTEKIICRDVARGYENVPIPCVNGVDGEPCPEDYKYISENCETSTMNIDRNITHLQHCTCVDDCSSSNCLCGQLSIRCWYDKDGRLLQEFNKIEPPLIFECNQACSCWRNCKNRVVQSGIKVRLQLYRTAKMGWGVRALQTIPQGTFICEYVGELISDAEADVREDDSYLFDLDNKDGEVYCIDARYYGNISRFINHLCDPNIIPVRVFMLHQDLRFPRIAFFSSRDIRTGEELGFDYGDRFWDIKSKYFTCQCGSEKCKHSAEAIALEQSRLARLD
# From the text: Recombinant purified human EHMT2 913-1193 ([…]) synthesized by Viva was used for all experiments. Biotinylated histone peptides were synthesized by Biopeptide and HPLC-purified to >95% purity. Streptavidin Flashplates and seals were purchased from PerkinElmer and 384 Well V-bottom Polypropylene Plates were from Greiner. ^3H-labeled S-adenosylmethionine (^3H-SAM) was obtained from American Radiolabeled Chemicals with a specific activity of 80 Ci/mmol. Unlabeled SAM and S-adenosylhomocysteine (SAH) were obtained from American Radiolabeled Chemicals and Sigma-Aldrich respectively. Flashplates were washed in a Biotek ELx-405 with 0.1% Tween. 384-well Flashplates and 96-well filter binding plates were read on a TopCount microplate reader (PerkinElmer). Compound serial dilutions were performed on a Freedom EVO (Tecan) and spotted into assay plates using a Thermo Scientific Matrix PlateMate (Thermo Scientific). Reagent cocktails were added by Multidrop Combi (Thermo Scientific).
# 10-point curves of test compounds were made on a Freedom EVO (Tecan) using serial 3-fold dilutions in DMSO, beginning at 2.5 mM (final top concentration of compound was […] and the DMSO was 2%). A 1 μL aliquot of the inhibitor dilution series was spotted in a polypropylene 384-well V-bottom plate (Greiner) using a Thermo Scientific Matrix PlateMate (Thermo Scientific). The 100% inhibition control consisted of 1 mM final concentration of the product inhibitor S-adenosylhomocysteine (SAH, Sigma-Aldrich). Compounds were incubated for 30 minutes with 40 μL per well of 0.031 nM EHMT2 (recombinant purified human EHMT2 913-1193, Viva) in 1× assay buffer (20 mM Bicine [pH 7.5], 0.002% Tween 20, 0.005% Bovine Skin Gelatin and 1 mM TCEP). 10 μL per well of substrate mix comprising assay buffer, ^3H-SAM (^3H-labeled S-adenosylmethionine, American Radiolabeled Chemicals, specific activity of 80 Ci/mmol), unlabeled SAM (American Radiolabeled Chemicals), and peptide representing histone H3 residues 1-15 containing C-terminal biotin (appended to a C-terminal amide-capped lysine, synthesized by Biopeptide and HPLC-purified to greater than 95% purity) were added to initiate the reaction (both substrates were present in the final reaction mixture at their respective Km values, an assay format referred to as “balanced conditions”). Reactions were incubated for 60 minutes at room temperature and quenched with 10 μL per well of 400 μM unlabeled SAM, then transferred to a 384-well streptavidin Flashplate (PerkinElmer) and washed in a Biotek ELx-405 well washer with 0.1% Tween after 60 minutes. 384-well Flashplates were read on a TopCount microplate reader (PerkinElmer).
# [1] = test system: H3K9me2 in MDA-MB-231 cells; experiment: MDA-MB-231 H3K9me2 in-cell western assay (EHMT2 ICW); format: cell-based; conditions: Homo sapiens
# From the text: MDA-MB-231 cell line was purchased from ATCC (Manassas, Va., USA). RPMI/Glutamax medium, Penicillin-Streptomycin, Heat Inactivated Fetal Bovine Serum, and D-PBS were purchased from Life Technologies (Grand Island, N.Y., USA). Odyssey blocking buffer, 800 CW goat anti-mouse IgG (H+L) antibody, and Licor Odyssey Infrared Scanner were purchased from Licor Biosciences, Lincoln, Nebr., USA. H3K9me2 mouse monoclonal antibody (Cat #1220) was purchased from Abcam (Cambridge, Mass., USA). 16% Paraformaldehyde was purchased from Electron Microscopy Sciences, Hatfield, Pa., USA). MDA-MB-231 cells were maintained in complete growth medium (RPMI supplemented with 10% v/v heat inactivated fetal bovine serum) and cultured at 37° C. under 5% C02. UNC0638 was purchased from Sigma-Aldrich (St. Louis, Mo., USA).
# General Procedure for MDA-MB-231 HEK9me2 in-Cell Western Assay.
# Compound (100 nL) was added directly to 384-well cell plate. MDA-MB-231 cells (ATCC) were seeded in assay medium (RPMI/Glutamax supplemented with 10% v/v heat inactivated fetal bovine serum and 1% Penicillin/Streptomycin, Life Technologies) at a concentration of 3,000 cells per well to a Poly-D-Lysine coated 384-well cell culture plate with 50 μL per well. Plates were incubated at 37° C., 5% CO2 for 48 hours (BD Biosciences 356697). […] After the incubation, 50 μL per well of 8% paraformaldehyde (Electron Microscopy Sciences) in PBS was added to the plates and incubated at room temperature for 20 minutes. Plates were transferred to a Biotek 406 plate washer and washed 2 times with 100 μL per well of wash buffer (1×PBS containing 0.3% Triton X-100 (v/v)). Next, 60 μL per well of Odyssey blocking buffer (Licor Biosciences) was added to each plate and incubated for 1 hour at room temperature. Blocking buffer was removed and 20 μL of monoclonal primary antibody α-H3K9me2 (Abcam) diluted 1:800 in Odyssey buffer with 0.1% Tween 20 (v/v) were added and plates were incubated overnight (16 hours) at 4° C. Plates were washed 5 times with 100 μL per well of wash buffer. Next 20 μL per well of secondary antibody was added (1:500 800 CW donkey anti-mouse IgG (H+L) antibody (Licor Biosciences), 1:1000 DRAQ5 (Cell Signaling Technology) in Odyssey buffer with 0.1% Tween 20 (v/v)) and incubated for 1 hour at room temperature. The plates were washed 5 times with 100 μL per well wash buffer then 2 times with 100 μL per well of water. Plates were allowed to dry at room temperature then imaged on a Licor Odyssey Infrared Scanner (Licor Biosciences) which measured integrated intensity at 700 nm and 800 nm wavelengths. Both 700 and 800 channels were scanned.
# First, the ratio for each well was determined by:
# Each plate included fourteen control wells of DMSO only treatment (Minimum Inhibition) as well as fourteen control wells (background wells) for maximum inhibition treated with control compound UNC0638 (Background wells).
# The average of the ratio values for each well was calculated and used to determine the percent inhibition for each test well in the plate. Control compound was serially diluted three-fold in DMSO for a total of 10 test concentrations beginning at 1 μM. Percent inhibition was calculated as: […]
# IC50 curves were generated using triplicate wells per concentration of compound. The IC50 is the concentration of compound at which measured methylation is inhibited by 50% as interpolated from the dose response curves. IC50 values were calculated using a non-linear regression (variable slope-four parameter fit model) with by the following formula:
# where Top is fixed at 100% and Bottom is fixed to 0%, [I]=concentration of inhibitor, IC50=half maximal inhibitory concentration and n=Hill Slope.
# [2] = Table 3, read-out: EHMT2 PEP (IC50 μM)
# [3] = Table 3, read-out: EHMT2 ICW (IC50 μM)
# [4] = Table 3A, read-out: EHMT2 (IC50 μM)
# [5] = Table 3A, read-out: ICW (IC50 μM)
IC50 (human EHMT2 913-1193; [2]),"IC50 [1, 3]",IC50 (human EHMT2 913-1193; [4]),"IC50 [1, 5]",Structure (SMILES)
0.1 to 1 µM,1 to 10 µM,–,–,"CNc1cc(C)nc(Nc2ccc(Br)c(CNCCN3CCCC3)c2)n1 [Compound 1, 2-N-[4-bromo-3-([[2-(pyrrolidin-1-yl)ethyl]amino]methyl)phenyl]-4-N,6-dimethylpyrimidine-2,4-diamine]"
–,–,0.01 to 0.1 µM,0.1 to 1 µM,CNCc1cn(-c2c(OC)cc3c(c2F)N=C(NC)C32CCC2)nn1 [Compound A21]
> 10 µM,> 10 µM,–,–,CNc1cc(C)nc(Nc2ccc(OC)c(C#CC[N+](C)(C)CCN)c2)n1 [Compound 45]
1 to 10 µM,> 10 µM,–,–,CNc1cc(C)nc(Nc2ccc(OC)c(CNCCN3CC[C@@H](C)C3)c2)n1 [Compound 38]
> 10 µM,> 10 µM,–,–,CNc1cc(C)nc(Nc2ccc(Cl)c(C(=O)NCC3CC3)c2)n1 [Compound 4]
–,–,< 0.01 µM,0.01 to 0.1 µM,CNCc1cn(-c2cc(Nc3nc(C)cc(NC)n3)ccc2Cl)nn1 [Compound A1]
1 to 10 µM,1 to 10 µM,–,–,CNc1cc(C)nc(Nc2ccc(Cl)c(C(=O)Nc3cscn3)c2)n1 [Compound 13]
0.1 to 1 µM,1 to 10 µM,–,–,"CNc1cc(C)nc(Nc2ccc(C3CC3)c(CNCCN3CCCC3)c2)n1 [Compound 11, 2-N-[4-cyclopropyl-3-([[2-(pyrrolidin-1-yl)ethyl]amino]methyl)phenyl]-4-N,6-dimethylpyrimidine-2,4-diamine]"
–,–,< 0.01 µM,0.01 to 0.1 µM,"CNC1=Nc2cc(-n3cc([C@H]4CCCN4)nn3)c(Cl)cc2C12CCC2 [Compound A2R, (R)-5′-chloro-N-methyl-6′-(4-(pyrrolidin-2-yl)-1H-1,2,3-triazol-1-yl)spiro[cyclobutane-1,3′-indol]-2′-amine]"
–,–,0.01 to 0.1 µM,0.1 to 1 µM,"CNCc1cn(-c2cc3c(cc2Cl)C2(CCC2)C(NC)=N3)nn1 [Compound A11, 5′-chloro-N-methyl-6′-(4-((methylamino)methyl)-1H-1,2,3-triazol-1-yl)spiro[cyclobutane-1,3′-indol]-2′-amine]"
> 10 µM,> 10 µM,–,–,CNc1cc(C)nc(Nc2ccc(C)c(C(=O)Nc3ncn(C)n3)c2)n1 [Compound 33]
–,–,0.1 to 1 µM,0.1 to 1 µM,CNc1cc(C)nc(Nc2ccc(OC)c(-n3cc([C@@H]4CCCN4)nn3)c2F)n1 [Compound A4S]
0.1 to 1 µM,1 to 10 µM,–,–,CNc1cc(C)nc(Nc2ccc(OC)c(CNCCN3CCC[C@H]3C)c2)n1 [Compound 31]
–,–,> 1 µM,> 1 µM,"CNC1=Nc2cc(-c3cc4n(n3)CCN(C)C4)c(Cl)cc2C12CCC2 [Compound A12, 5′-chloro-N-methyl-6′-(5-methyl-4,5,6,7-tetrahydropyrazolo[1,5-a]145yrazine-2-yl)spiro[cyclobutane-1,3′-indol]-2′-amine]"
0.1 to 1 µM,1 to 10 µM,–,–,CNc1cc(C)nc(Nc2ccc(OC)c(CNCCN3CC[C@H](C)C3)c2)n1 [Compound 39]
1 to 10 µM,1 to 10 µM,–,–,CNc1cc(C)nc(Nc2ccc(OC)c(C#CCNCCN(C)C)c2)n1 [Compound 49]
–,–,0.01 to 0.1 µM,0.01 to 0.1 µM,CNc1cc(C)nc(Nc2ccc(OC)c(-n3cc([C@H]4CCCN4)nn3)c2F)n1 [Compound A4R]
> 10 µM,> 10 µM,–,–,CNc1cc(C)nc(Nc2ccc(OC)c(CNC[C@H](C)N3CCCC3)c2)n1 [Compound 43]
> 10 µM,> 10 µM,–,–,CNc1cc(C)nc(Nc2ccc(Cl)c(C(=O)Nc3cccnn3)c2)n1 [Compound 5]
–,–,0.01 to 0.1 µM,0.01 to 0.1 µM,CNc1cc(C)nc(Nc2ccc(OC)c(-n3cc(C4CCCN4)nn3)c2F)n1 (stereo not shown) [Compound A4]
> 10 µM,> 10 µM,–,–,CNc1cc(C)nc(Nc2ccc(C)c(C(=O)Nc3cc(C#N)ccn3)c2)n1 [Compound 30]
> 10 µM,> 10 µM,–,–,CNc1cc(C)nc(Nc2ccc(OC)c(OC[C@H](O)CN3CC4(CC4)C3)c2)n1 [Compound 41]
> 10 µM,> 10 µM,–,–,CNc1cc(C)nc(Nc2ccc(Cl)c(C(=O)Nc3cn(C)cn3)c2)n1 [Compound 15]

Structure (SMILES),IC50 (human EHMT2 913-1193; [2]),"IC50 [1, 3]",IC50 (human EHMT2 913-1193; [4]),"IC50 [1, 5]"
"CNc1cc(C)nc(Nc2ccc(OC)c(-n3cc4c(n3)CCNC4)c2F)n1 [Compound A19, N2-(2-fluoro-4-methoxy-3-(4,5,6,7-tetrahydro-2H-pyrazolo[4,3-c]pyridin-2-yl)phenyl)-N4,6-dimethylpyrimidine-2,4-diamine]",–,–,0.1 to 1 µM,0.1 to 1 µM
"CNCc1cnn(-c2c(OC)ccc(Nc3nc(NC)cc(C(C)C)n3)c2F)c1 [Compound A8, N^2-(2-fluoro-4-methoxy-3-[4-[(methylamino)methyl]-1H-pyrazol-1-yl]phenyl)-N^4-methyl-6-(propan-2-yl)pyrimidine-2,4-diamine]",–,–,0.01 to 0.1 µM,0.01 to 0.1 µM
"CNCc1cn(-c2c(Cl)ccc(Nc3nc(C)cc(NC)n3)c2Cl)nn1 [Compound A13, N2-(2,4-dichloro-3-(4-((methylamino)methyl)-1H-1,2,3-triazol-1-yl)phenyl)-N4,6-dimethylpyrimidine-2,4-diamine]",–,–,< 0.01 µM,0.01 to 0.1 µM
